Values quoted from earlier work as cited in patent publication US7481758B2, “Pharmaceutically enhanced low-energy radiosurgery” (Sirius Medicine, LLC, priority 1997, dated 2009).

Key:
lymphocytes = conditions: in lymphocytes; low-energy photons
brain tumors = conditions: low-energy x-rays and iodine, brain tumors in rabbits

In the case of `II` [iodine], the dose enhancement (lymphocytes) is listed as “up to 3” and the dose enhancement (brain tumors) is listed as “about 30%”.
